Measurements as given in patent publication US9670227B2, “Thienopyrimidine derivatives, a process for their preparation and pharmaceutical compositions containing them” (LES LABORATOIRES SERVIER, priority 2013, dated 2017).

Legend:
[1] = system: H929 multiple myeloma tumour line; assay: In vitro cytotoxicity, Microculture Tetrazolium Assay; type: cell-based; settings: Homo sapiens, NCI-H929, 48 h, H929 cells, 48 hours exposure, MTT; read-out: IC50 (μM) MTT H929
Method: The cytotoxicity studies were carried out on the H929 multiple myeloma tumour line.
The cells are distributed onto microplates and exposed to the test compounds for 48 hours.

Mcl-1 protein = Mcl-1 protein (UniProtKB primary accession number: Q07820) (Homo sapiens, UniProt Q07820); assay: Inhibition of Mcl-1 by fluorescence polarisation, Method 1; type: binding; settings: fluorescence polarisation test; Method 2 values are underlined in the patent (underlining not visible here); read-out: IC50 (M) Mcl-1 FP
Summary of the method: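 Compounds were tested as 11-point serial dilutions at 5% final DMSO against 5 nM Mcl-1 with 1 nM fluorescein-labelled ligand in 10 mM HEPES, 150 mM NaCl, 0.05% Tween 20, pH 7.4. Relative binding potency was read by fluorescence polarisation.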

Chain of Mcl-1 protein (Q07820 whole entry): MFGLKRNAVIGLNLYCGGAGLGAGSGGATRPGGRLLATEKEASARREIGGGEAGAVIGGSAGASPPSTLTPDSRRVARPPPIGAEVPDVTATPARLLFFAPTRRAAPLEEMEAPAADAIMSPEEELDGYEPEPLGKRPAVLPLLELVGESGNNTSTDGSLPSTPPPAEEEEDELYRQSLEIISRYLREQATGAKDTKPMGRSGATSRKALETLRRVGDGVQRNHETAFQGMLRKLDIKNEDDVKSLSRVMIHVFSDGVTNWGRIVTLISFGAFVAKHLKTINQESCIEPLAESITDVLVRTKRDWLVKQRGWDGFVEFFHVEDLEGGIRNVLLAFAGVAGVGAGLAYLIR

| Structure (SMILES) | IC50 [1] [µM] | IC50 (Mcl-1 protein) [M] |
| --- | --- | --- |
| Cc1c(-c2c(-c3ccco3)sc3ncnc(OC(Cc4ccccc4OCc4cnc(N5CCCC5)nc4)C(=O)O)c23)ccc(OCCN2CCN(C)CC2)c1Cl [Example 272, (2R)-2-{[(5Sa)-5-{3-chloro-2-methyl-4-[2-(4-methylpiperazin-1-yl)ethoxy]phenyl}-6-(furan-2-yl)thieno[2,3-d]pyrimidin-4-yl]oxy}-3-(2-{[2-(pyrrolidin-1-yl)pyrimidin-5-yl]methoxy}phenyl)propanoic acid] | 0.822 | 2.2e-08 |
| Cc1c(-c2c(-c3ccco3)sc3ncnc(OC(Cc4ccccc4OCc4cnc(N5CCOCC5)nc4)C(=O)O)c23)ccc(OCCN2CCN(C)CC2)c1Cl [Example 273, (2R)-2-{[(5Sa)-5-{3-chloro-2-methyl-4-[2-(4-methylpiperazin-1-yl)ethoxy]phenyl}-6-(furan-2-yl)thieno[2,3-d]pyrimidin-4-yl]oxy}-3-(2-{[2-(morpholin-4-yl)pyrimidin-5-yl]methoxy}phenyl)propanoic acid] | 0.905 | 9.2e-09 |
| COc1ncc(COc2ccccc2CC(Oc2ncnc3sc(-c4ccco4)c(-c4ccc(OCCN5CCN(C)CC5)c(Cl)c4C)c23)C(=O)O)cn1 [Example 274, (2R)-2-{[(5Sa)-5-{3-chloro-2-methyl-4-[2-(4-methylpiperazin-1-yl)ethoxy]phenyl}-6-(furan-2-yl)thieno[2,3-d]pyrimidin-4-yl]oxy}-3-{2-[(2-methoxypyrimidin-5-yl)methoxy]phenyl}propanoic acid] | 0.131 | 7.7e-09 |
| Cc1c(-c2c(-c3ccco3)sc3ncnc(OC(Cc4ccccc4OCc4cnccn4)C(=O)O)c23)ccc(OCCN2CCN(C)CC2)c1Cl [Example 275, (2R)-2-{[(5Sa)-5-{3-chloro-2-methyl-4-[2-(4-methylpiperazin-1-yl)ethoxy]phenyl}-6-(furan-2-yl)thieno[2,3-d]pyrimidin-4-yl]oxy}-3-[2-(pyrazin-2-ylmethoxy)phenyl]propanoic acid] | 0.051 | 4.5e-09 |
| Cc1c(-c2c(-c3ccco3)sc3ncnc(OC(Cc4ccccc4OCc4cncnc4)C(=O)O)c23)ccc(OCCN2CCN(C)CC2)c1Cl [Example 277, (2R)-2-{[(5Sa)-5-{3-chloro-2-methyl-4-[2-(4-methylpiperazin-1-yl)ethoxy]phenyl}-6-(furan-2-yl)thieno[2,3-d]pyrimidin-4-yl]oxy}-3-[2-(pyrimidin-5-ylmethoxy)phenyl]propanoic acid] | 0.07 | 4.8e-09 |
| Cc1c(-c2c(-c3ccco3)sc3ncnc(OC(Cc4ccccc4OCc4cncs4)C(=O)O)c23)ccc(OCCN2CCN(C)CC2)c1Cl [Example 278, (2R)-2-{[(5Sa)-5-{3-chloro-2-methyl-4-[2-(4-methylpiperazin-1-yl)ethoxy]phenyl}-6-(furan-2-yl)thieno[2,3-d]pyrimidin-4-yl]oxy}-3-[2-(1,3-thiazol-5-ylmethoxy)phenyl]propanoic acid] | 0.202 | 6.7e-09 |
| Cc1c(-c2c(-c3ccco3)sc3ncnc(OC(Cc4ccccc4OCc4cnn(C)c4)C(=O)O)c23)ccc(OCCN2CCN(C)CC2)c1Cl [Example 279, (2R)-2-{[(5Sa)-5-{3-chloro-2-methyl-4-[2-(4-methylpiperazin-1-yl)ethoxy]phenyl}-6-(furan-2-yl)thieno[2,3-d]pyrimidin-4-yl]oxy}-3-{2-[(1-methyl-1H-pyrazol-4-yl)methoxy]phenyl}propanoic acid] | 0.406 | 8e-09 |
| Cc1c(-c2c(-c3ccco3)sc3ncnc(OC(Cc4ccccc4OCc4cocn4)C(=O)O)c23)ccc(OCCN2CCN(C)CC2)c1Cl [Example 280, (2R)-2-{[(5Sa)-5-{3-chloro-2-methyl-4-[2-(4-methylpiperazin-1-yl)ethoxy]phenyl}-6-(furan-2-yl)thieno[2,3-d]pyrimidin-4-yl]oxy}-3-[2-(1,3-oxazol-4-ylmethoxy)phenyl]propanoic acid] | 0.071 | 4e-09 |
| Cc1c(-c2c(-c3ccco3)sc3ncnc(OC(Cc4ccccc4OCc4cscn4)C(=O)O)c23)ccc(OCCN2CCN(C)CC2)c1Cl [Example 281, (2R)-2-{[(5Sa)-5-{3-chloro-2-methyl-4-[2-(4-methylpiperazin-1-yl)ethoxy]phenyl}-6-(furan-2-yl)thieno[2,3-d]pyrimidin-4-yl]oxy}-3-[2-(1,3-thiazol-4-ylmethoxy)phenyl]propanoic acid] | 0.081 | 7.9e-09 |
| Cc1c(-c2c(-c3ccco3)sc3ncnc(OC(Cc4ccccc4OCc4c5ccccc5nn4C)C(=O)O)c23)ccc(OCCN2CCN(C)CC2)c1Cl [Example 282, (2R)-2-{[(5Sa)-5-{3-chloro-2-methyl-4-[2-(4-methylpiperazin-1-yl)ethoxy]phenyl}-6-(furan-2-yl)thieno[2,3-d]pyrimidin-4-yl]oxy}-3-{2-[(2-methyl-2H-indazol-3-yl)methoxy]phenyl}propanoic acid] | 0.601 | 4e-08 |
| Cc1c(-c2c(-c3ccco3)sc3ncnc(OC(Cc4ccccc4OCc4ncc(-c5ccccc5)cn4)C(=O)O)c23)ccc(OCCN2CCN(C)CC2)c1Cl [Example 283, (2R)-2-{[(5Sa)-5-{3-chloro-2-methyl-4-[2-(4-methylpiperazin-1-yl)ethoxy]phenyl}-6-(furan-2-yl)thieno[2,3-d]pyrimidin-4-yl]oxy}-3-{2-[(5-phenylpyrimidin-2-yl)methoxy]phenyl}propanoic acid] | 0.25 | 2.6e-08 |
| Cc1c(-c2c(-c3ccco3)sc3ncnc(OC(Cc4ccccc4OCc4nccc5ccccc45)C(=O)O)c23)ccc(OCCN2CCN(C)CC2)c1Cl [Example 284, (2R)-2-{[(5Sa)-5-{3-chloro-2-methyl-4-[2-(4-methylpiperazin-1-yl)ethoxy]phenyl}-6-(furan-2-yl)thieno[2,3-d]pyrimidin-4-yl]oxy}-3-[2-(isoquinolin-1-ylmethoxy)phenyl]propanoic acid] | 1.79 | 4.8e-08 |
| Cc1c(-c2c(-c3ccco3)sc3ncnc(OC(Cc4ccccc4OCc4ncccc4Cl)C(=O)O)c23)ccc(OCCN2CCN(C)CC2)c1Cl [Example 285, (2R)-2-{[(5Sa)-5-{3-chloro-2-methyl-4-[2-(4-methylpiperazin-1-yl)ethoxy]phenyl}-6-(furan-2-yl)thieno[2,3-d]pyrimidin-4-yl]oxy}-3-{2-[(3-chloropyridin-2-yl)methoxy]phenyl}propanoic acid] | 0.588 | 1.7e-08 |
| Cc1c(-c2c(-c3ccco3)sc3ncnc(OC(Cc4ccccc4OCc4ncccn4)C(=O)O)c23)ccc(OCCN2CCN(C)CC2)c1Cl [Example 286, (2R)-2-{[(5Sa)-5-{3-chloro-2-methyl-4-[2-(4-methylpiperazin-1-yl)ethoxy]phenyl}-6-(furan-2-yl)thieno[2,3-d]pyrimidin-4-yl]oxy}-3-[2-(pyrimidin-2-ylmethoxy)phenyl]propanoic acid] | 0.508 | 7.6e-09 |
| Cc1c(-c2c(-c3ccco3)sc3ncnc(OC(Cc4ccccc4OCc4nccn4C)C(=O)O)c23)ccc(OCCN2CCN(C)CC2)c1Cl [Example 287, (2R)-2-{[(5Sa)-5-{3-chloro-2-methyl-4-[2-(4-methylpiperazin-1-yl)ethoxy]phenyl}-6-(furan-2-yl)thieno[2,3-d]pyrimidin-4-yl]oxy}-3-{2-[(1-methyl-1H-imidazol-2-yl)methoxy]phenyl}propanoic acid] | 0.667 | 8.3e-09 |
| Cc1c(-c2c(-c3ccco3)sc3ncnc(OC(Cc4ccccc4OCCC(F)(F)F)C(=O)O)c23)ccc(OCCN2CCN(C)CC2)c1Cl [Example 288, (2R)-2-{[(5Sa)-5-{3-chloro-2-methyl-4-[2-(4-methylpiperazin-1-yl)ethoxy]phenyl}-6-(furan-2-yl)thieno[2,3-d]pyrimidin-4-yl]oxy}-3-[2-(3,3,3-trifluoropropoxy)phenyl]propanoic acid] | 0.086 | 1.2e-08 |
| Cc1c(-c2c(-c3ccco3)sc3ncnc(OC(Cc4ccccc4OCCc4ccccn4)C(=O)O)c23)ccc(OCCN2CCN(C)CC2)c1Cl [Example 289, (2R)-2-{[(5Sa)-5-{3-chloro-2-methyl-4-[2-(4-methylpiperazin-1-yl)ethoxy]phenyl}-6-(furan-2-yl)thieno[2,3-d]pyrimidin-4-yl]oxy}-3-{2-[2-(pyridin-2-yl)ethoxy]phenyl}propanoic acid] | 0.18 | 1.4e-08 |
| Cc1c(-c2c(-c3ccco3)sc3ncnc(OC(Cc4ccccc4OCCOc4ccccc4)C(=O)O)c23)ccc(OCCN2CCN(C)CC2)c1Cl [Example 291, (2R)-2-{[(5Sa)-5-{3-chloro-2-methyl-4-[2-(4-methylpiperazin-1-yl)ethoxy]phenyl}-6-(furan-2-yl)thieno[2,3-d]pyrimidin-4-yl]oxy}-3-[2-(2-phenoxyethoxy)phenyl]propanoic acid] | 1.3 | 3.8e-08 |
| Cc1c(-c2c(-c3ccco3)sc3ncnc(OC(Cc4ccccc4OCCOCc4ccccc4)C(=O)O)c23)ccc(OCCN2CCN(C)CC2)c1Cl [Example 292, (2R)-3-{2-[2-(benzyloxy)ethoxy]phenyl}-2-{[(5Sa)-5-{3-chloro-2-methyl-4-[2-(4-methylpiperazin-1-yl)ethoxy]phenyl}-6-(furan-2-yl)thieno[2,3-d]pyrimidin-4-yl]oxy}propanoic acid] | 0.192 | 9.3e-09 |
| Cc1c(-c2c(-c3ccco3)sc3ncnc(OC(Cc4ccccc4OCc4cn(Cc5ccccc5)nn4)C(=O)O)c23)ccc(OCCN2CCN(C)CC2)c1Cl [Example 294, (2R)-3-{2-[(1-benzyl-1H-1,2,3-triazol-4-yl)methoxy]phenyl}-2-{[(5Sa)-5-{3-chloro-2-methyl-4-[2-(4-methylpiperazin-1-yl)ethoxy]phenyl}-6-(furan-2-yl)thieno[2,3-d]pyrimidin-4-yl]oxy}propanoic acid] | 0.886 | 1.6e-08 |
